From BindingDB's records for doi:10.1021/jm00081a007 (Ohio State University, 1992)

Assays:
[1] = Inhibitory activity against U-46,619-induced responses in human platelet aggregation (Thromboxane A2 alpha receptor)
Thromboxane A2 receptor = molecular target: T1, Thromboxane A2 receptor (Homo sapiens, UniProt P21731); test: ChEBML_209427
T1 sequence (P21731 whole entry): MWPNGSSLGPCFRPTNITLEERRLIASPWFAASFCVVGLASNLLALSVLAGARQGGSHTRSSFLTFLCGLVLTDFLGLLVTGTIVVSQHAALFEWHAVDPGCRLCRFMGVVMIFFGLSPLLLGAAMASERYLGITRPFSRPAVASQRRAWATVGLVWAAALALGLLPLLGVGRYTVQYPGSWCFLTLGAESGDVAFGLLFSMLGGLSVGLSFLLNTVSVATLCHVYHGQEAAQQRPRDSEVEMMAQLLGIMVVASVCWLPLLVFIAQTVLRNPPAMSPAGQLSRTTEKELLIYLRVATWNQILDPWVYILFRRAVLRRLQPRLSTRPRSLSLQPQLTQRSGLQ
Source text: Inhibitory activity against U-46,619-induced responses in human platelet aggregation (Thromboxane A2 alpha receptor)

Row | IC50 [1] [µM] | IC50 (Thromboxane A2 receptor) [µM] | Structure (SMILES)
1 | 39.8 | – | COc1cc(C[C@@H]2NCCc3cc(O)c(O)c(F)c32)cc(OC)c1OC [TMQ, S-(+)-8-Fluoro]
2 | 2.46 | – | COc1cc(C[C@H]2NCCc3cc(O)c(O)c(F)c32)cc(OC)c1OC [TMQ, R-(-)-8-Fluoro]
3 | – | 120 | COc1cc(CC2NCCc3c2cc(O)c(O)c3I)cc(OC)c1OC (stereo unspecified) [TMQ, 5-Iodo]
4 | – | 832 | COc1cc(CC2NCCc3c2cc(O)c(O)c3C(F)(F)F)cc(OC)c1OC (stereo unspecified) [TMQ, 5-TrifluoroMe]
5 | – | 3.09 | COc1cc(CC2NCCc3cc(O)c(O)c(I)c32)cc(OC)c1OC (stereo unspecified) [TMQ, 8-Iodo]
6 | – | 158 | COc1cc(CC2NCCc3c(F)c(O)c(O)c(F)c32)cc(OC)c1OC (stereo unspecified) [TMQ, 5,8-Difluoro]
